Source: patent publication US7211572B2 (Japan Tobacco Inc., priority 2003, dated 2007)
Where a name gives a salt, the structure may show the parent alone.

Molecular target: T1, HIV integrase (Human immunodeficiency virus type 1 group M subtype B, UniProt P12497, F1332H)
T1 construct: HIV integrase full length gene; made in house; host or cells: Escherichia coli BL21(DE3), plasmid pET21a-INH
Experiment: Determination of enzyme (HIV integrase) inhibitory activity
Type: biochemical
Conditions: recombinant HIV integrase (F185H), strand transfer ELISA, absorbance at 450 nm
How it was run: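 Full-length integrase with F185H, expressed in E. coli and purified, was reacted for 60 min at 37 °C with compound and biotinylated donor DNA bound to streptavidin plates. Target DNA was added for 10 min, then anti-digoxigenin-peroxidase detection at A450; IC50 from % inhibition versus enzyme-free blank.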

Row | Structure (SMILES) | IC50 [µM]
1 | CC(C)C(=O)c1cn2c(c(O)c1=O)C(=O)N(Cc1ccc(Cl)c(Cl)c1)CC2 [Example 384, 2-(3,4-dichlorobenzyl)-9-hydroxy-7-isobutyryl-3,4-dihydro-2H-pyrido[1,2-a]pyrazine-1,8-dione] | < 0.01
2 | CC(C)C(=O)c1cn2c(c(O)c1=O)C(=O)N(Cc1ccc(F)cc1)CC2 [Example 385, 2-(4-fluorobenzyl)-9-hydroxy-7-isobutyryl-3,4-dihydro-2H-pyrido[1,2-a]pyrazine-1,8-dione] | 0.01 to 0.1
3 | CC(C)(C)C(=O)c1cn2c(c(O)c1=O)C(=O)N(Cc1ccc(F)cc1)CC2 [Example 386, 7-(2,2-dimethylpropionyl)-2-(4-fluorobenzyl)-9-hydroxy-3,4-dihydro-2H-pyrido[1,2-a]pyrazine-1,8-dione] | 0.01 to 0.1
4 | CC(C)CC(=O)c1cn2ccn(Cc3ccc(F)cc3)c(=O)c2c(O)c1=O [Example 387, 2-(4-fluorobenzyl)-9-hydroxy-7-(3-methylbutyryl)-2H-pyrido[1,2-a]pyrazine-1,8-dione hydrochloride] | 0.01 to 0.1
5 | CNC(=O)c1cn2c(c(O)c1=O)C(=O)N(Cc1ccc(F)c(F)c1)CC2 [Example 388, N-methyl-2-(3,4-difluorobenzyl)-9-hydroxy-1,8-dioxo-1,3,4,8-tetrahydro-2H-pyrido[1,2-a]pyrazine-7-carboxamide] | 0.1 to 1
6 | COCC(C)(C)C(=O)c1cn2c(c(O)c1=O)C(=O)N(Cc1ccc(F)cc1)CC2 [Example 389, 2-(4-fluorobenzyl)-9-hydroxy-7-(3-methoxy-2,2-dimethylpropionyl)-3,4-dihydro-2H-pyrido[1,2-a]pyrazine-1,8-dione] | 0.01 to 0.1
7 | O=c1c(-c2ccncn2)cn2ccn(Cc3cccc(Cl)c3)c(=O)c2c1O [Example 391, 2-(3-chlorobenzyl)-9-hydroxy-7-(pyrimidin-4-yl)-2H-pyrido[1,2-a]pyrazine-1,8-dione hydrochloride] | 0.01 to 0.1
8 | O=C1c2c(O)c(=O)c(-c3ccncn3)cn2CCN1Cc1ccc(F)cc1 [Example 392, 2-(4-fluorobenzyl)-9-hydroxy-7-(pyrimidin-4-yl)-3,4-dihydro-2H-pyrido[1,2-a]pyrazine-1,8-dione hydrochloride] | 0.01 to 0.1
9 | O=C1c2c(O)c(=O)c(-c3ccncn3)cn2CCN1Cc1ccc(Cl)cc1 [Example 393, 2-(4-chlorobenzyl)-9-hydroxy-7-(pyrimidin-4-yl)-3,4-dihydro-2H-pyrido[1,2-a]pyrazine-1,8-dione hydrochloride] | 0.01 to 0.1
10 | O=C1c2c(O)c(=O)c(-c3ccncn3)cn2CCN1Cc1ccc(F)c(Cl)c1 [Example 394, 2-(3-chloro-4-fluorobenzyl)-9-hydroxy-7-(pyrimidin-4-yl)-3,4-dihydro-2H-pyrido[1,2-a]pyrazine-1,8-dione hydrochloride] | 0.01 to 0.1
11 | O=c1c(-c2ccncn2)cn2ccn(Cc3ccc(F)c(Cl)c3)c(=O)c2c1O [Example 395, 2-(3-chloro-4-fluorobenzyl)-9-hydroxy-7-(pyrimidin-4-yl)-2H-pyrido[1,2-a]pyrazine-1,8-dione hydrochloride] | < 0.01
12 | CCCOc1cc(Cl)cc(CN2CCn3cc(-c4nccs4)c(=O)c(O)c3C2=O)c1 [Example 396, 2-(3-chloro-5-propoxybenzyl)-9-hydroxy-7-(thiazol-2-yl)-3,4-dihydro-2H-pyrido[1,2-a]pyrazine-1,8-dione hydrochloride] | 0.01 to 0.1
13 | CC(C)Oc1cc(Cl)cc(CN2CCn3cc(-c4nccs4)c(=O)c(O)c3C2=O)c1 [Example 397, 2-(3-chloro-5-isopropoxybenzyl)-9-hydroxy-7-(thiazol-2-yl)-3,4-dihydro-2H-pyrido[1,2-a]pyrazine-1,8-dione hydrochloride] | 0.01 to 0.1
14 | O=C1c2c(O)c(=O)c(-c3nccs3)cn2CCN1Cc1cc(Cl)cc(OCc2ccccc2)c1 [Example 398, 2-(3-benzyloxy-5-chlorobenzyl)-9-hydroxy-7-(thiazol-2-yl)-3,4-dihydro-2H-pyrido[1,2-a]pyrazine-1,8-dione hydrochloride] | 0.01 to 0.1
15 | O=c1c(-c2ccncn2)cn2ccn(Cc3ccc(Cl)cc3)c(=O)c2c1O [Example 399, 2-(4-chlorobenzyl)-9-hydroxy-7-(pyrimidin-4-yl)-2H-pyrido[1,2-a]pyrazine-1,8-dione hydrochloride] | < 0.01
16 | O=C(Cc1cccnc1)Nc1cn2ccn(Cc3cccc(Cl)c3)c(=O)c2c(O)c1=O [Example 400, N-[2-(3-chlorobenzyl)-9-hydroxy-1,8-dioxo-1,8-dihydro-2H-pyrido[1,2-a]pyrazin-7-yl]-2-(pyridin-3-yl)acetamide hydrochloride] | < 0.01
17 | O=C(Cc1ccncc1)Nc1cn2ccn(Cc3cccc(Cl)c3)c(=O)c2c(O)c1=O [Example 401, N-[2-(3-chlorobenzyl)-9-hydroxy-1,8-dioxo-1,8-dihydro-2H-pyrido[1,2-a]pyrazin-7-yl]-2-(pyridin-4-yl)acetamide hydrochloride] | 0.01 to 0.1

Row | Structure (SMILES) | IC50 [µM]
18 | O=C(Cc1ccccn1)Nc1cn2ccn(Cc3cccc(Cl)c3)c(=O)c2c(O)c1=O [Example 402, N-[2-(3-chlorobenzyl)-9-hydroxy-1,8-dioxo-1,8-dihydro-2H-pyrido[1,2-a]pyrazin-7-yl]-2-(pyridin-2-yl)acetamide hydrochloride] | 0.01 to 0.1
19 | O=c1c(-c2ccncn2)cn2ccn(Cc3cccc(F)c3)c(=O)c2c1O [Example 403, 2-(3-fluorobenzyl)-9-hydroxy-7-(pyrimidin-4-yl)-2H-pyrido[1,2-a]pyrazine-1,8-dione hydrochloride] | 0.01 to 0.1
20 | O=c1c(-c2cnccn2)cn2ccn(Cc3cccc(F)c3)c(=O)c2c1O [Example 404, 2-(3-fluorobenzyl)-9-hydroxy-7-(pyrazin-2-yl)-2H-pyrido[1,2-a]pyrazine-1,8-dione hydrochloride] | 0.01 to 0.1
21 | Cn1ncnc1-c1cn2ccn(Cc3ccc(F)c(Cl)c3)c(=O)c2c(O)c1=O [Example 405, 2-(3-chloro-4-fluorobenzyl)-9-hydroxy-7-(2-methyl-2H-1,2,4-triazol-3-yl)-2H-pyrido[1,2-a]pyrazine-1,8-dione hydrochloride] | < 0.01
22 | CC(C)(C)CC(=O)Nc1cn2c(c(O)c1=O)C(=O)N(Cc1ccc(F)c(Cl)c1)CC2 [Example 406, N-[2-(3-chloro-4-fluorobenzyl)-9-hydroxy-1,8-dioxo-1,3,4,8-tetrahydro-2H-pyrido[1,2-a]pyrazin-7-yl]-3,3-dimethylbutyramide] | 0.01 to 0.1
23 | Cc1cn(Cc2cccc(F)c2)c(=O)c2c(O)c(=O)c(-c3ccccn3)cn12 [Example 407, 2-(3-fluorobenzyl)-9-hydroxy-4-methyl-7-(pyridin-2-yl)-2H-pyrido[1,2-a]pyrazine-1,8-dione hydrochloride] | 0.01 to 0.1
24 | Cc1cn(Cc2ccc(F)cc2)c(=O)c2c(O)c(=O)c(C(=O)C(C)(C)C)cn12 [Example 408, 7-(2,2-dimethylpropionyl)-2-(4-fluorobenzyl)-9-hydroxy-4-methyl-2H-pyrido[1,2-a]pyrazine-1,8-dione hydrochloride] | 0.01 to 0.1
25 | COCc1c(C(=O)C(C)(C)C)c(=O)c(O)c2n1CCN(Cc1ccc(F)cc1)C2=O [Example 409, 7-(2,2-dimethylpropionyl)-2-(4-fluorobenzyl)-9-hydroxy-6-methoxymethyl-3,4-dihydro-2H-pyrido[1,2-a]pyrazine-1,8-dione hydrochloride] | 0.01 to 0.1
26 | O=C(NCc1ccccn1)c1cn2c(c(O)c1=O)C(=O)N(Cc1ccc(F)cc1)CC2 [Example 410, N-(pyridin-2-ylmethyl)-2-(4-fluorobenzyl)-9-hydroxy-1,8-dioxo-1,3,4,8-tetrahydro-2H-pyrido[1,2-a]pyrazine-7-carboxamide hydrochloride] | 0.01 to 0.1
27 | O=C(NCc1ccco1)c1cn2c(c(O)c1=O)C(=O)N(Cc1ccc(F)cc1)CC2 [Example 411, N-(furan-2-ylmethyl)-2-(4-fluorobenzyl)-9-hydroxy-1,8-dioxo-1,3,4,8-tetrahydro-2H-pyrido[1,2-a]pyrazine-7-carboxamide hydrochloride] | 0.01 to 0.1
28 | CC(C)(C)C(=O)c1cn2c(c(O)c1=O)C(=O)N(Cc1ccc(F)cc1)CC2(C)C [Example 412, 7-(2,2-dimethylpropionyl)-2-(4-fluorobenzyl)-9-hydroxy-4,4-dimethyl-3,4-dihydro-2H-pyrido[1,2-a]pyrazine-1,8-dione hydrochloride] | 0.01 to 0.1
29 | CC1(C)CN(Cc2ccc(F)cc2)C(=O)c2c(O)c(=O)c(Br)cn21 [Example 413, 7-bromo-2-(4-fluorobenzyl)-9-hydroxy-4,4-dimethyl-3,4-dihydro-2H-pyrido[1,2-a]pyrazine-1,8-dione hydrochloride] | 0.1 to 1
30 | CC1(C)CN(Cc2ccc(F)cc2)C(=O)c2c(O)c(=O)c(-c3ccccn3)cn21 [Example 414, 2-(4-fluorobenzyl)-9-hydroxy-4,47dimethyl-7-(pyridin-2-yl)-3,4-dihydro-2H-pyrido[1,2-a]pyrazine-1,8-dione hydrochloride] | 0.1 to 1
31 | CN(C)c1ccc(CNC(=O)c2cn3c(c(O)c2=O)C(=O)N(Cc2ccc(F)cc2)CC3)cc1 [Example 415, N-(4-dimethylaminobenzyl)-2-(4-fluorobenzyl)-9-hydroxy.-1,8-dioxo-1,3,4,8-tetrahydro-2H-pyrido[1,2-a]pyrazine-7-carboxamide hydrochloride] | 0.01 to 0.1
32 | O=C1c2c(O)c(=O)c(-c3cnccn3)cn2CCN1Cc1cccc(Cl)c1 [Example 416, 2-(3-chlorobenzyl)-9-hydroxy-7-(pyrazin-2-yl)-3,4-dihydro-2H-pyrido[1,2-a]pyrazine-1,8-dione hydrochloride] | 0.01 to 0.1
33 | O=C1c2c(O)c(=O)c(-c3cnccn3)cn2CCN1Cc1ccc(F)cc1 [Example 417, 2-(4-fluorobenzyl)-9-hydroxy-7-(pyrazin-2-yl)-3,4-dihydro-2H-pyrido[1,2-a]pyrazine-1,8-dione hydrochloride] | 0.01 to 0.1
